Test results taken from patent US8536120B2 (The Administrators of The Tulane Educational Fund, priority 2006, dated 2013).
Where “and” joins values, the source holds several entries; their conditions need not be identical. Identical values can stand only once. Values belong to the compound of their own block, whether it stands above or below them. Where no end group is shown, it is not given here. [ ]: non-standard residue; d: D form. d2Nal = N[C@H](Cc1ccc2ccccc2c1)C(=O)O

Legend:
[1] = molecular target: T1, Ghrelin/GHRP/GHS Receptor (Rattus norvegicus, UniProt O08725); test: In vitro cell culture method: GH release from cell culture of pituitary cells, peptide alone or plus stimulator; type: cell-based; set-up: from cell culture of pituitary cells; endogenous in cells; host or cells: dispersed primary rat anterior pituitary cells, 4 days in culture; conditions: for GH release, first line of entry (mark P + S): stimulator 1 ng/ml; for Unstimulated Basal GH release: Table 8
Protocol: (§1) The peptides were synthesized by the solid phase method and purified by HPLC. GH was determined by Radioimmunoassay (RIA).
In vitro GH Release-Female rats of the CD-1 strain were housed in a constant temperature room at 24° C. with 14 h light and 10 h darkness. The rats were fed Purina Rat chow and water at libitum. All studies were started between 0800-1000 hours. Pituitaries of mature female Sprague Dawley rats were rapidly removed after decapitation, neurointermediate lobe discarded and then placed in a pH 7.4 buffer. The pituitaries were cut into ˜3-mm pieces and then transferred to a flask containing HEPS buffer with trypsin and incubated at 37° C. Cells were triturated several times during this period. After dispersion, the cells were collected by centrifugation, wash with DMEM and placed into culture well. Cell cultures were maintained for 4 days at 37° with 8% CO2 added to the incubator atmosphere. After 4 days in culture, cells were washed with lactated Ringer's solution adjusted to pH 7.2-7.4 and then vehicle, peptide alone or peptide plus stimulator was added to media. Incubation time was 60-120 minutes after which media was removed from each well for GH determination. The GH RIA reagents were distributed by the NIH. Control data was collected from cell cultures treated with only the corresponding vehicle in the absence of peptide or stimulator. Control stimulated data was collected from cell cultures treated with stimulator alone in the absence of any peptide.

[2] = molecular target: T1, Ghrelin/GHRP/GHS Receptor; test: In vivo assay of GH release in rat, i.v. peptide alone or plus stimulator, serum GH by RIA
Protocol: as §1
For the in vivo assay of GH Release in rat, immature female Sprague Dawley rats were obtained from Charles River from Wilmington, Mass. After arrival they were housed at 25° C. with a 14:10 h light:dark cycle. Water and Purina rat chow were available at libitum. Pups were weaned at 21 days of age.
Immature twenty six day old female Sprague Dawley rats, 3-6 rats per treatment dose, were pretreated with pentobarbital 20 minutes before iv injection of vehicle/peptide or peptide plus stimulator. Injection was made as a 0.1 ml solution. For the non-pentobarbital treated rat assay, peptides were administered iv into the tail vein of conscious rats. All animals were sacrificed by guillotine after iv peptide or vehicle. Trunk blood was collected at +10-15 minutes […], allowed to clot, centrifuged and serum stored until assayed for GH levels by RIA. The GH RIA reagents were distributed by the NIH. Control data was collected from rats treated with only the corresponding vehicle in the absence of peptide or stimulator. Control stimulated data was collected from rats treated with stimulator alone in the absence of any peptide.

T1 sequence (O08725 whole entry): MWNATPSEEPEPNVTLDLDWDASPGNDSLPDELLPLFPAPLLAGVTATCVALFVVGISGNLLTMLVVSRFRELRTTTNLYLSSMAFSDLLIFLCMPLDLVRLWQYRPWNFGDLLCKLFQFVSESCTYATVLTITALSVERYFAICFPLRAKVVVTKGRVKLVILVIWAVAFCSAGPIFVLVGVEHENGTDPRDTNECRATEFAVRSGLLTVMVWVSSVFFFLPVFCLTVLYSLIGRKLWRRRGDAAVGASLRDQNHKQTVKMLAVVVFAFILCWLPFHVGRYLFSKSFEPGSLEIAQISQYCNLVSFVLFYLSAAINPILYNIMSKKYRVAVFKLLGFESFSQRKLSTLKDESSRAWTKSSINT

GH release, second line of entry (no mark) ([1]; Table 10, 10 μg/ml): 480 ± 9 ng/mL
GH release, first line of entry (mark P + S) ([1]; Table 10, 10 μg/ml): 373 ± 2 ng/mL
GH release, second line of entry (no mark) ([1]; Table 10, 30 μg/ml): 223 ± 22 ng/mL
GH release, first line of entry (mark P + S) ([1]; Table 10, 30 μg/ml): 176 ± 11 ng/mL
Compound: CCOC(=O)c1cc2ccccc2cc1C(=O)N1CCC(c2ccccc2OC)CC1 [ethyl 3-(4-(2-methoxyphenyl)piperidine-1-carbonyl)-2-naphthoate]

GH release, second line of entry (no mark) ([1]; Table 11, 10 μg/ml): 1149 ± 33 ng/mL
GH release, first line of entry (mark P + S) ([1]; Table 11, 10 μg/ml): 754 ± 32 ng/mL
GH release, second line of entry (no mark) ([1]; Table 11, 30 μg/ml): 886 ± 29 ng/mL
GH release, first line of entry (mark P + S) ([1]; Table 11, 30 μg/ml): 498 ± 26 ng/mL
Compound: COC(=O)c1cc2ccccc2cc1C(=O)Nc1ccc(C)cc1 [methyl 3-(p-tolylcarbamoyl)-2-naphthoate]

GH release, second line of entry (no mark) ([1]; Table 10, 1 μg/ml): 654 ± 18 ng/mL
GH release, first line of entry (mark P + S) ([1]; Table 10, 1 μg/ml): 338 ± 3 ng/mL
GH release, second line of entry (no mark) ([1]; Table 10, 3 μg/ml): 442 ± 4 ng/mL
GH release, first line of entry (mark P + S) ([1]; Table 10, 3 μg/ml): 204 ± 10 ng/mL
GH release, second line of entry (no mark) ([1]; Table 10, 10 μg/ml): 537 ± 28 ng/mL and 648 ± 16 ng/mL
GH release, first line of entry (mark P + S) ([1]; Table 10, 10 μg/ml): 262 ± 4 ng/mL and 136 ± 11 ng/mL
GH release, second line of entry (no mark) ([1]; Table 10, 30 μg/ml): 309 ± 46 ng/mL
GH release, first line of entry (mark P + S) ([1]; Table 10, 30 μg/ml): 118 ± 8 ng/mL
Compound: COc1ccccc1N1CCN(C(=O)c2cc3ccccc3cc2C(=O)N2CCN(c3ccccc3OC)CC2)CC1 [naphthalene-2,3-diylbis((4-(2-methoxyphenyl)piperazin-1-yl)methanone)]

GH release, second line of entry (no mark) ([1]; Table 10, 10 μg/ml): 878 ± 30 ng/mL
GH release, first line of entry (mark P + S) ([1]; Table 10, 10 μg/ml): 777 ± 34 ng/mL
GH release, second line of entry (no mark) ([1]; Table 10, 30 μg/ml): 510 ± 15 ng/mL
GH release, first line of entry (mark P + S) ([1]; Table 10, 30 μg/ml): 499 ± 18 ng/mL
Compound: CC(C)(N)C(=O)N[C@H](COCc1ccccc1)C(=O)N1CCN(c2ccccc2)CC1 [αAibDSer(BZL)-N′-phenyl-N-piperazinamide, (R)-2-amino-N-(3-(benzyloxy)-1-oxo-1-(4-phenylpiperazin-1-yl)propan-2-yl)-2-methylpropanamide]

Second part, the compound before the results:

Compound: C=C(C)CON=C(c1ccccc1)c1ccccc1 [O-(2-methylallyl) benzophonone oxime, O-(2-methylallyl)benzophenone oxime]
GH release, second line of entry (no mark) ([1]; Table 10, 10 μg/ml): 1281 ± 58 ng/mL
GH release, first line of entry (mark P + S) ([1]; Table 10, 10 μg/ml): 929 ± 28 ng/mL
GH release, second line of entry (no mark) ([1]; Table 10, 30 μg/ml): 699 ± 53 ng/mL
GH release, first line of entry (mark P + S) ([1]; Table 10, 30 μg/ml): 616 ± 23 ng/mL

Compound: DAla-DcyclohexylAla-Ala-Ala-Phe-DPhe-Nle-NH2
Unstimulated Basal GH release ([1]; peptide 1 μg/ml): 286 ± 75 ng/mL
Unstimulated Basal GH release ([1]; peptide 3 μg/ml): 177 ± 44 ng/mL
Unstimulated Basal GH release ([1]; peptide 10 μg/ml): 271 ± 38 ng/mL
Unstimulated Basal GH release ([1]; peptide 30 μg/ml): 376 ± 28 ng/mL

Compound: [dA][d2Nal]AW[dF]K-NH2 [reference compound]
Stimulated Control GH ([2]; Table 2, stimulator DAla-DβNal-Ala-Trp-DPhe-Lys-NH2 alone 0.3 μg, rat): 2253 ± 252 ng/mL and 1412 ± 400 ng/mL
Stimulated Control GH ([2]; Table 2, stimulator DAla-DβNal-Ala-Trp-DPhe-Lys-NH2 alone 1 μg, rat): 3214 ± 276 ng/mL and 3105 ± 429 ng/mL and 2406 ± 288 ng/mL and 2825 ± 134 ng/mL and 3104 ± 429 ng/mL
Stimulated Control GH ([2]; Table 4, Non-Pentobarbital Rats, stimulator DAla-DβNal-Ala-Trp-DPhe-Lys-NH2 alone 10 μg): 72 ± 9 ng/mL
Stimulated Control GH ([2]; Table 4, Pentobarbital Rats, stimulator DAla-DβNal-Ala-Trp-DPhe-Lys-NH2 alone 1 μg): 4950 ± 98 ng/mL
Stimulated Control GH release ([1]; Table 6, stimulator DAla-DβNal-Ala-Trp-DPhe-Lys-NH2 alone 10 ng/ml): 2420 ± 0 ng/mL and 2811 ± 229 ng/mL and 2385 ± 8 ng/mL
Stimulated Control GH release ([1]; Table 9, stimulator DAla-DβNal-Ala-Trp-DPhe-Lys-NH2 alone 1 ng/ml): 1232 ± 34 ng/mL
Stimulated Control GH release ([1]; Table 10, stimulator DAla-DβNal-Ala-Trp-DPhe-Lys-NH2 alone 1 ng/ml): 905 ± 6 ng/mL and 1153 ± 36 ng/mL and 1216 ± 26 ng/mL and 1461 ± 58 ng/mL and 1016 ± 18 ng/mL and 859 ± 4 ng/mL and 1060 ± 24 ng/mL
Stimulated Control GH release ([1]; Table 11, stimulator DAla-DβNal-Ala-Trp-DPhe-Lys-NH2 alone 1 ng/ml): 905 ± 6 ng/mL and 947 ± 11 ng/mL and 947 ± 33 ng/mL and 1016 ± 18 ng/mL

Compound: [dA][d2Nal][dK][dW]FK-NH2
Stimulated GH release (P + S) ([2]; Table 4, Pentobarbital Rats, peptide 30 μg i.v. + stimulator DAla-DβNal-Ala-Trp-DPhe-Lys-NH2 1 μg): 2884 ± 828 ng/mL
